Tests used:
α-GDF-8 cells [1] = test: Lactate, growth, viability and titer of α-GDF-8 cells in culture dishes, two passages (Example 2); format: cell-based, Chinese Hamster; parameters: key to Gluc: glucose in g/L; viab: unit not given here
Experimental: Materials and Methods: α-GDF-8 cells were grown in culture dishes in Medium 1 containing approximately 6 g/L glucose with varying concentrations of 2-deoxyglucose. Some α-GDF-8 cultures were optionally supplemented with glucose to a final initial concentration of 9 g/L. Cells were passaged twice and grown for three days after each passage. At the end of three days, each of the passaged cultures was measured for viability, cell density, glucose levels, lactate levels and α-GDF-8 titer. Specific titer production rate (“Qp”) and specific lactate uptake rate (“Qlact”) were calculated. Qlact was calculated as follows: ((final lactate level−initial lactate level)/(final cell density−initial cell density))×growth rate×24, where lactate levels are measured in g/L, cell densities are measured in 10^6 cells/ml, growth rate is measured as l/h, and the final Qlact is calculated as mg/e6/day. Qp was calculated as follows: ((final titer−initial titer)/(final cell density−initial cell density))×growth rate×24, where titer is measured in mg/L, cell density is measured in 10^6 cells/ml, growth rate is measured as 1/h, and Qp is calculated as μg/e6/day.

α-GDF-8 cells [2] = test: α-GDF-8 cells in 1 L Bioreactors in the presence of high glucose (Example 5); format: cell-based, Chinese Hamster; settings: 0.5 g/L 2-deoxyglucose
Experimental: Materials and Methods: α-GDF-8 cells were grown in Medium 2 in 1 L Bioreactors and fed with Medium 3. The starting culture media were either supplemented or not with 0.5 g/L 2-deoxyglucose. The cells were fed on days 3, 5, 7, 10 and 12 to keep the glucose level at above approximately 8 g/L. The cultures lacking 2-deoxyglucose were shifted from 37° Celsius to 31° Celsius on day 4, while the cultures containing 2-deoxyglucose were shifted from 37° Celsius to 31° Celsius on day 5.

rats = settings: fed to rats, without decreasing total food intake; cited from earlier work
α-GDF-8 cells [3] = test: α-GDF-8 cells in 1 L Bioreactors, shift on day 4 or day 6 (Example 3); format: cell-based, Chinese Hamster
Experimental: Materials and Methods: α-GDF-8 cells were grown in Medium 2 in 1 L Bioreactors and fed with Medium 3. Some of the cultures were supplemented with 0.5 g/L 2-deoxyglucose at the beginning of the culture. The cultures were shifted from 37° Celsius to 31° Celsius on either day 4 (“early shift”) or day 6 (“late shift”). [table]

α-GDF-8 cells [4] = test: α-GDF-8 cells in 1 L Bioreactors, shift on day 5 or day 6 (Example 4); format: cell-based, Chinese Hamster
Experimental: Materials and Methods: α-GDF-8 cells were grown in Medium 2 in 1 L Bioreactors and fed with Medium 3. Some of the cultures were supplemented with 0.5 g/L 2-deoxyglucose at the beginning of the culture. The cells were fed with either 3 g/L glucose or 0.3 g/L 2-deoxyglucose on day 4 and with either 10% feed medium (by volume) or 10% feed medium (by volume) supplemented with 0.2 g/L 2-deoxyglucose on day 5. The cultures were shifted from 37° Celsius to 31° Celsius on either day 5 (“early shift”) or day 6 (“late shift”). Additional feeds were provided on days 7 and 10. [table]

[5] = system: α-GDF-8 cells (CHO cells engineered to express a monoclonal antibody against GDF-8); test: Cell growth of α-GDF-8 cells in culture dishes with varying 2-deoxyglucose (Example 1); format: cell-based, Chinese Hamster
Experimental: Materials and Methods: Chinese Hamster Ovary (“CHO”) cells engineered to express a monoclonal antibody against growth and differentiation factor 8 (“α-GDF-8 cells”) (see […] et al., Neutralizing Antibodies Against GDF-8 and Uses Therefor, US20040142382 A1) were grown in culture dishes in Medium 1 supplemented with glucose to a final initial concentration of 9 g/L with varying concentrations of 2-deoxyglucose.

[6] = first passage, 0.25 g/L deoxyglucose, 9 g/L glucose
[7] = first passage, 0.5 g/L deoxyglucose, 6 g/L glucose
[8] = first passage, 0.5 g/L deoxyglucose, 9 g/L glucose
[9] = first passage, 1 g/L deoxyglucose, 9 g/L glucose
[10] = second passage, 0.25 g/L deoxyglucose, 9 g/L glucose
[11] = second passage, 0.5 g/L deoxyglucose, 6 g/L glucose
[12] = second passage, 0.5 g/L deoxyglucose, 9 g/L glucose
[13] = second passage, 1 g/L deoxyglucose, 6 g/L glucose
[14] = second passage, 1 g/L deoxyglucose, 9 g/L glucose
[15] = 0.5 g/L 2-deoxyglucose, early shift (day 4)
[16] = 0.5 g/L 2-deoxyglucose, late shift (day 6)

For `O=CC[C@@H](O)[C@H](O)[C@H](O)CO` [2-deoxyglucose], the “effect on accumulation of lactate” value (α-GDF-8 cells [1]; culture dishes, dose-dependent) was “reduced the accumulation of lactate in the culture in a dose-dependent manner”, the “effect on specific growth rate” value (α-GDF-8 cells [1]; culture dishes, dose-dependent) was “negatively affected” and the “effect on α-GDF-8 titer” value (α-GDF-8 cells [1]; culture dishes, dose-dependent) was “reduced the α-GDF-8 titer in a dose-dependent manner”. For the same molecule, the Gluc (α-GDF-8 cells [1]; [6]) was 7.55, the Qlact (α-GDF-8 cells [1]; [6]) was 0.899 mg/e6/day and the “c.d (end)” value (α-GDF-8 cells [1]; [6]) was 1.3 10^6 cells/ml. It also gave a lact (α-GDF-8 cells [1]; [6]) of 1.53 g/L, a viab (α-GDF-8 cells [1]; [6]) of 99.7 and a μ (specific growth rate) (α-GDF-8 cells [1]; [6]) of 0.032 h⁻¹. For the same molecule, the Gluc (α-GDF-8 cells [1]; [7]) was 5.21, the Qlact (α-GDF-8 cells [1]; [7]) was 0.701 mg/e6/day and the “c.d (end)” value (α-GDF-8 cells [1]; [7]) was 1.24 10^6 cells/ml. It also gave a lact (α-GDF-8 cells [1]; [7]) of 1.2 g/L, a viab (α-GDF-8 cells [1]; [7]) of 99.1 and a μ (specific growth rate) (α-GDF-8 cells [1]; [7]) of 0.03 h⁻¹. For the same molecule, the Gluc (α-GDF-8 cells [1]; [8]) was 7.88, the Qlact (α-GDF-8 cells [1]; [8]) was 0.727 mg/e6/day and the “c.d (end)” value (α-GDF-8 cells [1]; [8]) was 1.12 10^6 cells/ml. For the same molecule, the lact (α-GDF-8 cells [1]; [8]) was 1.22 g/L, the viab (α-GDF-8 cells [1]; [8]) was 99.3 and the μ (specific growth rate) (α-GDF-8 cells [1]; [8]) was 0.028 h⁻¹. For the same molecule, the Gluc (α-GDF-8 cells [1]; [9]) was 8.13, the Qlact (α-GDF-8 cells [1]; [9]) was 0.553 mg/e6/day and the “c.d (end)” value (α-GDF-8 cells [1]; [9]) was 1.05 10^6 cells/ml. It also gave a lact (α-GDF-8 cells [1]; [9]) of 0.9 g/L, a viab (α-GDF-8 cells [1]; [9]) of 99.7 and a μ (specific growth rate) (α-GDF-8 cells [1]; [9]) of 0.027 h⁻¹. The Gluc (α-GDF-8 cells [1]; [10]) was 7.25, the Qlact (α-GDF-8 cells [1]; [10]) was 0.576 mg/e6/day and the Qp (α-GDF-8 cells [1]; [10]) was 15.477 μg/e6/day. For the same molecule, the “c.d (end)” value (α-GDF-8 cells [1]; [10]) was 3.2 10^6 cells/ml, the lact (α-GDF-8 cells [1]; [10]) was 2.17 g/L and the “titer (α-GDF-8)” value (α-GDF-8 cells [1]; [10]) was 58.28 mg/L. It also gave a viab (α-GDF-8 cells [1]; [10]) of 99.5, a μ (specific growth rate) (α-GDF-8 cells [1]; [10]) of 0.035 h⁻¹ and a Gluc (α-GDF-8 cells [1]; [11]) of 5.04. The Qlact (α-GDF-8 cells [1]; [11]) was 0.415 mg/e6/day, the Qp (α-GDF-8 cells [1]; [11]) was 13.135 μg/e6/day and the “c.d (end)” value (α-GDF-8 cells [1]; [11]) was 2.6 10^6 cells/ml. The lact (α-GDF-8 cells [1]; [11]) was 1.36 g/L, the “titer (α-GDF-8)” value (α-GDF-8 cells [1]; [11]) was 43 mg/L and the viab (α-GDF-8 cells [1]; [11]) was 99. The μ (specific growth rate) (α-GDF-8 cells [1]; [11]) was 0.033 h⁻¹, the Gluc (α-GDF-8 cells [1]; [12]) was 7.65 and the Qlact (α-GDF-8 cells [1]; [12]) was 0.506 mg/e6/day. The Qp (α-GDF-8 cells [1]; [12]) was 14.252 μg/e6/day, the “c.d (end)” value (α-GDF-8 cells [1]; [12]) was 2.8 10^6 cells/ml and the lact (α-GDF-8 cells [1]; [12]) was 1.79 g/L. The “titer (α-GDF-8)” value (α-GDF-8 cells [1]; [12]) was 50.37 mg/L, the viab (α-GDF-8 cells [1]; [12]) was 99.6 and the μ (specific growth rate) (α-GDF-8 cells [1]; [12]) was 0.033 h⁻¹. The Gluc (α-GDF-8 cells [1]; [13]) was 6.51, the Qlact (α-GDF-8 cells [1]; [13]) was 0.290 mg/e6/day and the Qp (α-GDF-8 cells [1]; [13]) was 12.038 μg/e6/day. For the same molecule, the “c.d (end)” value (α-GDF-8 cells [1]; [13]) was 1.5 10^6 cells/ml, the lact (α-GDF-8 cells [1]; [13]) was 0.68 g/L and the “titer (α-GDF-8)” value (α-GDF-8 cells [1]; [13]) was 28.22 mg/L. For the same molecule, the viab (α-GDF-8 cells [1]; [13]) was 98.6, the μ (specific growth rate) (α-GDF-8 cells [1]; [13]) was 0.027 h⁻¹ and the Gluc (α-GDF-8 cells [1]; [14]) was 9. For the same molecule, the Qlact (α-GDF-8 cells [1]; [14]) was 0.290 mg/e6/day, the Qp (α-GDF-8 cells [1]; [14]) was 12.400 μg/e6/day and the “c.d (end)” value (α-GDF-8 cells [1]; [14]) was 1.9 10^6 cells/ml. For the same molecule, the lact (α-GDF-8 cells [1]; [14]) was 0.98 g/L, the “titer (α-GDF-8)” value (α-GDF-8 cells [1]; [14]) was 34.85 mg/L and the viab (α-GDF-8 cells [1]; [14]) was 99. The μ (specific growth rate) (α-GDF-8 cells [1]; [14]) was 0.028 h⁻¹, the Qlact (α-GDF-8 cells [1]; second passage, 1 g/L deoxyglucose, 9 g/L glucose, listed as 2-Deoxyglucose) was 0.349 mg/e6/day and the “effect on viability of the cells” value (α-GDF-8 cells [1]; up to a ratio of 2-deoxyglucose to glucose of 1 to 6) was “largely unaffected”. The “lactate accumulation vs cultures lacking 2-deoxyglucose” value (α-GDF-8 cells [2]; glucose above approximately 8 g/L, shift day 5) was “significantly lower”, the “α-GDF-8 titer vs culture lacking 2-deoxyglucose” value (α-GDF-8 cells [2]; high glucose, by day 14) was “slightly higher” and the “cell density vs culture lacking 2-deoxyglucose” value (α-GDF-8 cells [2]; high glucose, middle stage of the culture) was “slightly higher”. The “overall integrated viable cell density vs cells without 2-deoxyglucose” value (α-GDF-8 cells [2]; high glucose, shifted one day later) was “higher”, the glucose/energy flux (rats) was “reduces glucose/energy flux” and the “final titer vs culture lacking 2-deoxyglucose” value (α-GDF-8 cells [3]; [15]) was “slightly higher”. For the same molecule, the “lactate levels vs culture lacking 2-deoxyglucose” value (α-GDF-8 cells [3]; [15]) was “slightly lower”, the “cell density at the time of the shift” value (α-GDF-8 cells [3]; [16]) was “approximately 18 ×e^6/mL” and the “final titer vs culture lacking 2-deoxyglucose” value (α-GDF-8 cells [3]; [16]) was “slightly higher”. The “lactate level at the time of the shift” value (α-GDF-8 cells [3]; [16]) was “approximately 6 g/L”, the “lactate levels vs culture lacking 2-deoxyglucose” value (α-GDF-8 cells [3]; [16]) was “slightly lower” and the “viability vs late shifted cells without 2-deoxyglucose” value (α-GDF-8 cells [3]; [16]) was “significantly higher”. For the same molecule, the “cell density vs the other three conditions” value (α-GDF-8 cells [3]; 0.5 g/L 2-deoxyglucose, late shift (day 6), from approximately day 4) was “significantly higher”, the “lactate level at the time of the shift” value (α-GDF-8 cells [3]; early shift (day 4), stated for the two early shifted cultures, with and without 2-deoxyglucose) was 4 to 5 g/L and the “final lactate concentration vs early shifted cultures” value (α-GDF-8 cells [4]; [16]) was “lower”. For the same molecule, the “α-GDF-8 produced per cell vs other three conditions” value (α-GDF-8 cells [4]; [16]) was “less α-GDF-8 per cell”, the “cell density vs the other three conditions” value (α-GDF-8 cells [4]; 0.5 g/L 2-deoxyglucose, late shift (day 6), from approximately day 5) was “significantly higher” and the glucose uptake (α-GDF-8 cells [4]; 2-deoxyglucose in the culture medium, early and late shift) was “decrease”. The “overall titer of α-GDF-8 vs other culture conditions” value (α-GDF-8 cells [4]; all four culture conditions) was “similar”, the “specific growth rate (μ)” value ([5]; 1 g/L 2-deoxyglucose, 9 g/L glucose (ratio 1:9)) was “over 0.02 l/h” and the “specific growth rate (μ)” value ([5]; 2.5 g/L 2-deoxyglucose, 9 g/L glucose) was “approximately 0.015 l/h”. For the same molecule, the “effect of increasing amounts on specific growth rate” value ([5]; 9 g/L glucose) was “reduced the specific growth rate in a dose-dependent manner”.

From patent publication US8192951B2, “Glycolysis-inhibiting substances in cell culture” (Wyeth LLC, priority 2006, dated 2012)
